Experimental data from publication PMC7377239, “Cardiovascular Effects of Polychlorinated Biphenyls and Their Major Metabolites” (Environmental Health Perspectives, 2020).
Read-outs that look alike come from different tables or passages of the source.

Tested on: iCell cardiomyocytes (human iPSC-derived cardiomyocytes)
Assay: Intracellular Ca2+ flux / beating parameters in iCell cardiomyocytes (FLIPR tetra), 90 min or 24 h
Assay type: cell-based
Details: Homo sapiens, Cardiomyocyte, 0.00 µM = 100.00; for activity at 0.1 µM: 0.10 µM
Outline: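 PODs were defined as the concentration crossing one SD of the vehicle-control means (0.5% DMSO) on four-parameter logistic fits of Ca2+ trace metrics (peak height, frequency, peak-spacing CV, decay/rise ratio). Traces came from 100 s, 8 Hz FLIPR reads at 37 °C on calcium-dye-loaded iCell cardiomyocytes. Before reading, cells were treated for 90 min or 24 h from 5× chemical plates spanning 0.05–500 µM, in triplicate.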

[1] = 1.5 h, 90min, read-out: cm.amp.avg.90min
[2] = 1.5 h, 90min, read-out: cm.amp.cv.90min
[3] = 1.5 h, 90min, read-out: cm.bpm.90min
[4] = 1.5 h, 90min, read-out: cm.decay.rise.90min
[5] = 1.5 h, 90min, read-out: cm.spacing.cv.90min
[6] = 24 h, 24hrs, read-out: cm.amp.avg.24hrs
[7] = 24 h, 24hrs, read-out: cm.amp.cv.24hrs
[8] = 24 h, 24hrs, read-out: cm.bpm.24hrs
[9] = 24 h, 24hrs, read-out: cm.decay.rise.24hrs
[10] = 24 h, 24hrs, read-out: cm.spacing.cv.24hrs

Molecule `Oc1cc(Cl)c(-c2cc(Cl)ccc2Cl)cc1Cl` [4-OH PCB52] has an activity at 0.01 µM [1] of 107%, an activity at 0.01 µM [2] of 94.5% and an activity at 0.01 µM [3] of 97.8%. For the same molecule, the activity at 0.01 µM [4] was 98.4%, the activity at 0.01 µM [5] was 115% and the activity at 0.1 µM [1] was 103%. The activity at 0.1 µM [2] was 96.5%, the activity at 0.1 µM [3] was 99.1% and the activity at 0.1 µM [4] was 96.6%. It also gave an activity at 0.1 µM [5] of 104%, an activity at 1 µM [1] of 110% and an activity at 1 µM [2] of 99.2%. For the same molecule, the activity at 1 µM [3] was 91.5%, the activity at 1 µM [4] was 99.2% and the activity at 1 µM [5] was 108%. It also gave an activity at 10 µM [1] of 105%, an activity at 10 µM [2] of 100% and an activity at 10 µM [3] of 58.9%. It also gave an activity at 10 µM [4] of 114%, an activity at 10 µM [5] of 102% and an activity at 100 µM [1] of 0%. For the same molecule, the activity at 100 µM [2] was 0%, the activity at 100 µM [3] was 0% and the activity at 100 µM [4] was 0%. For the same molecule, the activity at 100 µM [5] was 0%, the activity at 0.01 µM [6] was 125% and the activity at 0.01 µM [7] was 96.2%. It also gave an activity at 0.01 µM [8] of 105%, an activity at 0.01 µM [9] of 93.1% and an activity at 0.01 µM [10] of 102%. The activity at 0.1 µM [6] was 79.9%, the activity at 0.1 µM [7] was 128% and the activity at 0.1 µM [8] was 95.5%. For the same molecule, the activity at 0.1 µM [9] was 89.2%, the activity at 0.1 µM [10] was 94% and the activity at 1 µM [6] was 112%. For the same molecule, the activity at 1 µM [7] was 79.4%, the activity at 1 µM [8] was 86.9% and the activity at 1 µM [9] was 101%. For the same molecule, the activity at 1 µM [10] was 82.1%, the activity at 10 µM [6] was 80.2% and the activity at 10 µM [7] was 113%. It also gave an activity at 10 µM [8] of 86.9%, an activity at 10 µM [9] of 104% and an activity at 10 µM [10] of 96.7%. It also gave an activity at 100 µM [6] of 0%, an activity at 100 µM [7] of 0% and an activity at 100 µM [8] of 0%. The activity at 100 µM [9] was 0% and the activity at 100 µM [10] was 0%.
